Molecules are shown by their SMILES. Where two headings read alike, the source gives them in different places.

This is an account of results in patent publication US5162320A, “1,4-bis(alkylamino)-2,3-diaza-anthracene-9,10-diones” (Boehringer Biochemia Robin S.p.A., priority 1989, dated 1992).

Series [1] concerns human melanoma xenographt. As to the kind of experiment: M.T.T. assay in vitro, human melanoma. In kind it is cell-based. The procedure:
(§1) The antitumor activity of compounds of the present invention was evaluated by "in vitro" M.T.T. assay (T. Mosmann, J. Immunol. Meth. 65 : 55-63, 1983) on human tumor cell lines. M.T.T. assay was chosen according to N.C.I. screening program for new anticancer drugs (Ad hoc review committee proceedings for N.C.I. "in vitro"--"in vivo" Disease oriented Screening project. N.I.H., Bethesda, Md. Dec.8-9, 1986).

Series [2] relates to human colon adenocarcinoma. In words: M.T.T. assay in vitro, human colon adenocarcinoma. In kind it is cell-based. The settings on record: human colon adenocarcinoma xenographt, read-out: ID50 (the source's name). As to the method:
as §1

In series [3] the test system is human cervix epithelioid carcinoma cell line. In words: M.T.T. assay in vitro, human cervix epithelioid carcinoma. Format: cell-based. The procedure: as §1
Against the same human cervix epithelioid carcinoma cell line the compounds (1) and (2) show ID50 of 1×10^-9 M and 2×10^-10 M, respectively.

For series [4] the following is noted: human, in vivo; cited from earlier work.
For series [5] the following is noted: intraperitoneal, non-tumor bearing animals; cited from earlier work.
The mark [6] stands for this setting: human melanoma xenographt, M.T.T. assay, read-out: ID50 (the source's name).
Where [7] appears, read: human cervix epithelioid carcinoma, in vitro, read-out: ID50 (the source's name).
[8] abbreviates: human cervix epithelioid carcinoma.

Consider `OCCCNc1nnc(NCCCO)c2cc3ccccc3cc12` [1,4-bis[N-(3-hydroxypropyl)amino]-2,3-diaza-anthracene], for which the IC50 in series [1] (setting [6]) turned out to be 500000 nM.

Regarding `CN(C)CCNc1nnc(NCCN(C)C)c2c1C(=O)c1ccccc1C2=O` [Compound 1, 1,4-bis[N-(2-dimethylaminoethyl)amino]-2,3-diaza-anthracene-9,10-dione], the IC50 in series [2] turned out to be 10 nM; in series [1] (setting [6]), 1 nM; in series [3] (setting [7]), 1 nM.

Turning to `CN(C)CCNc1nnc(N)c2c1C(=O)c1ccccc1C2=O` [Compound 2, 1-[N-(2-dimethylaminoethyl)amino]-4-amino-2,3-diaza-anthracene9,10-dione], the IC50 amounted to 1 nM in series [2], 0.1 nM in series [1] (setting [6]) and 0.2 nM in series [3] (setting [7]).

For `O=C1c2ccccc2C(=O)c2c(NCCCO)nnc(NCCCO)c21` [Compound 3, 1,4-bis[N-(3-hydroxypropyl)amino]-2,3-diaza-anthracene-9,10-dione], the IC50 in series [1] (setting [6]) turned out to be 2 nM.

With `Nc1nnc(NCCCO)c2c1C(=O)c1ccccc1C2=O` [Compound 4, 1-[N-(3-hydroxypropyl)amino]-4-amino-2,3-diaza-anthracene-9,10-dione], the IC50 in series [1] (setting [6]) was 1 nM.

On to `Nc1nnc(NCCNCCO)c2c1C(=O)c1ccccc1C2=O` [Compound 5, 1-[N-(2-(2-hydroxyethylamino)ethyl)amino]-4-amino-2,3-diaza-anthracene-9,10-dione], for which, in series [3] (setting [8]), the “activity compared with ametantrone” value was “definitely more active than ametantrone” and the “activity compared with mitoxantrone” value is reported as “as active as mitoxantrone”. For the same compound, the IC50 in series [3] (setting [7]) turned out to be 3 nM.

`O=C1c2ccccc2C(=O)c2c(NCCNCCO)ccc(NCCNCCO)c21` [ametantrone, 1,4-bis[(2-(2-hydroxyethylamino)ethyl)amino]anthracene-9,10-dione]: the IC50 in series [1] (Homo sapiens, read-out: ID50) was determined as 20000 nM; in series [3] (Homo sapiens, read-out: ID50), 50000 nM. In series [4], the cardiotoxicity result is reported as “some cardiotoxicity”. Besides, the delayed lethality result in series [5] is reported as “not observed”.

With `COc1cccc2c1C(=O)c1c(O)c3c(c(O)c1C2=O)C[C@@](O)(C(=O)CO)C[C@@H]3O[C@H]1C[C@H](N)[C@H](O)[C@H](C)O1` [doxorubicin], in series [4], the cardiotoxicity entry is reported as “severe dose-related cardiotoxicity”; the toxic side effects result was “nausea, vomiting and alopecia”.

Regarding `O=C1c2c(O)ccc(O)c2C(=O)c2c(NCCNCCO)ccc(NCCNCCO)c21` [mitoxantrone, 5,8-dihydroxy-1,4-bis[(2-(2-hydroxyethylamino)ethyl)amino]anthracene-9,10-dione], the IC50 in series [2] is 100 nM. Further, the IC50 in series [1] (setting [6]) was 1 nM. Also, the IC50 in series [3] (setting [7]) amounted to 5 nM. Further, in series [4], the cardiotoxicity entry is listed as “some clinical cardiotoxicity”; the major hematological toxicities result was “leukopenia, neutropenia and bone marrow aplasia”; the toxic side effects result is on record as “by far lower than those resulting from doxorubicin”. Also, in series [5], the delayed lethality entry was “a delayed lethality”.
